Values joined by “and” are separate entries in the source; they are usually repeats but may differ in a detail not shown here. Equal values may be shown once. Read-outs that look alike come from different tables or passages of the source. Marks after values point to notes of the source that are not given here.
Test system: lentivirus with D614G SC2 spike protein, A549 cells overexpressing ACE2 and TMPRSS2
Assay type: cell-based, SARS-CoV-2
Set-up: key to qualitative inhibition of SC2 uptake (heatmap): –: −: inactive; ++: qualitative inhibition of SC2 uptake
Settings: for IC50: read-out: IC50 of SC2 lentivector entry

Compound: CC(C)(C)OC(=O)NCCNC(=O)O[C@H]1CSS(=O)(=O)C[C@H]1O[Si](C)(C)C(C)(C)C (racemic) [Compound 50]
- VE, vector entry (inhibitor 5 μM (1 h), lentivirus 6 h, 3 days expression, n = 3, ±SD): 100 ± 40%

Compound: O=S1(=O)C[C@H](O)[C@H](O)CS1 (stereo in doubt) [Compound 3, (4S,5R)-4,5-dihydroxy-1,2-dithiane-1,1-dioxide]
- inhibition of SC2 lentivector entry (in words): inactive
- qualitative inhibition of SC2 uptake (heatmap): ++

Compound: CC(C)(C)[Si](C)(C)OC1CS(=O)(=O)SCC1OC(=O)NCCCCCCNC(=O)OC1CSS(=O)(=O)CC1O[Si](C)(C)C(C)(C)C (stereo not drawn) [Compound 4]
- VE, vector entry: 46 ± 8%
- IC50: ~10 µM and ~5 µM

Compound: CC(C)(C)[Si](C)(C)O[C@@H]1CS(=O)(=O)SC[C@@H]1O [Compound 6]
- VE, vector entry: 105 ± 3%

Compound: O=C1O[C@H]2CSS(=O)(=O)C[C@H]2O1 [Compound 11]
- VE, vector entry: 4 ± 1%

Compound: CC1(C)O[C@H]2CSS(=O)(=O)C[C@H]2O1 [Compound 13]
- VE, vector entry: 80 ± 20%

Compound: O=C(O)c1cc(SSc2ccc([N+](=O)[O-])c(C(=O)O)c2)ccc1[N+](=O)[O-] [Compound 16, 5,5’-Dithiobis(2-nitrobenzoic acid), reference compound]
- VE, vector entry: >100%
- inhibition of SC2 lentivector entry (in words) (5 μM): weak activation rather than inhibition

Compound: O=C(NCCCCCCNC(=O)O[C@H]1CSS(=O)(=O)C[C@H]1OCc1ccccc1)O[C@H]1CSS(=O)(=O)C[C@H]1OCc1ccccc1 [Compound 33]
- VE, vector entry: 56 ± 12%
- IC50: ~5 µM

Compound: CC(C)(C)OC(=O)NCCNC(=O)O[C@H]1CSS(=O)(=O)C[C@H]1O [Compound 34]
- VE, vector entry: 8 ± 6%

Compound: O=C(N[C@H]1CCS(=O)(=O)SC1)N[C@H]1CCS(=O)(=O)SC1 [Compound 35]
- VE, vector entry: 25 ± 3%
- inhibition of SC2 lentivector entry (in words): inactivity
- inhibition of SC2 lentivector entry (in words) (50 μM): high activity

Compound: CC(=O)O[C@H]1CSS(=O)(=O)C[C@H]1O [Compound 36]
- VE, vector entry: 34 ± 3%

Compound: O=S(O)CC(O)C(O)CSSCC(O)C(O)CS(=O)O (stereo not drawn) [Compound 37]
- VE, vector entry: 42 ± 32%

Compound: CC(C)(C)[Si](C)(C)O[C@@H]1CS(=O)(=O)SC[C@@H]1OC(=O)NCC[N+](C)(C)C [Compound 38]
- VE, vector entry: 43 ± 26%

Compound: NCCNC(=O)O[C@H]1CSS(=O)(=O)C[C@H]1O [Compound 39]
- VE, vector entry: 52 ± 31%

Compound: O=S(O)CC(O)C(O)CSSCCSSCC(O)C(O)CS(=O)O (stereo not drawn) [Compound 40]
- VE, vector entry: 64 ± 25%

Compound: O=C(NCCCCCCNC(=O)O[C@H]1CSS(=O)(=O)C[C@H]1O)O[C@H]1CSS(=O)(=O)C[C@H]1O [Compound 41]
- VE, vector entry: >100 ^f %
- inhibition of SC2 lentivector entry (in words): inactive

Compound: CC(C)(C)[Si](C)(C)O[C@H]1CS(=O)(=O)SC[C@H]1OC(=O)NCCNC(=O)CC(O)(CC(=O)NCCNC(=O)O[C@H]1CSS(=O)(=O)C[C@H]1O[Si](C)(C)C(C)(C)C)C(=O)NCCNC(=O)O[C@@H]1CSS(=O)(=O)C[C@@H]1O[Si](C)(C)C(C)(C)C (stereo partly drawn) [Compound 42]
- VE, vector entry: 97 ± 15%

Compound: CCCNC(=O)O[C@H]1CSS(=O)(=O)C[C@H]1O[Si](C)(C)C(C)(C)C [Compound 43]
- VE, vector entry: 99 ± 12%
- inhibition of SC2 lentivector entry (in words): inactivity

Compound: C#CCNC(=O)CC[C@H](NC(=O)COCCNC(=O)O[C@H]1CSS(=O)(=O)C[C@H]1O[Si](C)(C)C(C)(C)C)C(=O)NCCOCCNC(=O)O[C@H]1CSS(=O)(=O)C[C@H]1O[Si](C)(C)C(C)(C)C [Compound 44]
- VE, vector entry: 103 ± 12%

Compound: O=C(O)Cn1[se]c2ccccc2c1=O [Compound 45, reference compound]
- VE, vector entry: 31 ± 3%
- qualitative inhibition of SC2 uptake (heatmap): ++
- inhibition of SC2 lentivector entry (in words) (50 μM): more active and nontoxic

Compound: O=c1c2ccccc2[se]n1-c1ccccc1 [Compound 46, Ebselen, reference compound]
- VE, vector entry: 65 ± 13%
- inhibition of SC2 lentivector entry (in words) (50 μM): more toxic than active

Compound: CCN1C(=O)C2SSSSC1C(=O)N2CC(=O)O (stereo not drawn) [Compound 47, reference compound]
- VE, vector entry: 83 ± 12%
- qualitative inhibition of SC2 uptake (heatmap): –

Compound: CC(=O)/C=C1/C(=O)N(C)c2ccccc21 [Compound 48, super-cinnamaldehyde, reference compound]
- VE, vector entry: >100%
- inhibition of SC2 lentivector entry (in words) (5 μM): weak activation rather than inhibition

Compound: CC#CI1OC(=O)c2ccccc21 [Compound 49, reference compound]
- VE, vector entry: >100%
- inhibition of SC2 lentivector entry (in words): did not inhibit
- qualitative inhibition of SC2 uptake (heatmap): –
